In assay [1] the test system is P. noctiluca. The experiment in a line: Tentacle Skin Blood Agarose Assay (TSBAA): venom load as hemolytic area after natural stimulation of nematocyst discharge. The class given is cell-based. The conditions noted are these: for discharge of nematocysts: summary statement on the results of Examples 1 and 2. The protocol:
(§1) Jellyfish cultures: Jellyfish were cultivated by laboratory conditions in Loro Parque aquarium (Tenerife, Spain). The P. noctiluca adult individuals were breeding in kreisels tanks with a continuous water renewal, 33-35‰ salinity, 22°C temperature and light cycle of 12h light/12h dark. Individuals were daily fed with Artemia sp. nauplii, small pieces of the jellyfish Aurelia sp., eggs of Merluccius and Parapenaeus longirostris.
Briefly, an agarose gel preparation incorporating sheep red blood cells (SRBCs) (Thermo Fisher Scientific) was used covered by a thin tissue of pig intestine to simulate the effect of the human skin barrier.
A solution of 4% low melting point agarose (INVITROGEN ™ LMP Agarose) in phosphate buffered saline (PBS) (SIGMA) was prepared and cooled to room temperature for a few minutes. The SRBCs were centrifuged and resuspended in PBS until a final concentration of 2% was obtained. Equal volumes of both preparations were mixed and poured onto a glass surface with a mold (18x7.5 cm) and allowed to cool to room temperature. Once the agarose with SRBCs was set, rectangles were cut and placed on slides and kept at 4 °C in a humidification chamber (maximum 72 hours until use).
Pig small intestine tissue was washed in a 50 mM saline solution and then cut in rectangular sections. The sections were sterilized in a disinfecting solution consisting of 87% 110 mM saline, 10% ethanol (PANREAC, ethanol 96%) and 3% hydrogen peroxide for 3 hours, after which they were left in physiological serum overnight. The next day, the sections were stretched on a glass surface and allowed to dry for a few minutes in the open air. The pretreated sections of the pig small intestine were placed on the SRBC agarose rectangles.
Cutting tentacles of the same size is a complicated process due to the contraction and expansion of the tentacles after their manipulation. In order to control the sting area, we design plastic molds obtained through a 3D printer.
Tentacle pieces of approximately 3 cm long were incubated on reductor or inhibitory solutions (Method 3) for 5 minutes. Consecutively, the agarose rectangles were stung by a sting diameter of 57,35 mm^2 for 1 minute. A weight of 0,66 g was applied to ensure the contact between the tentacle and the skin. After the sting process, the plastic molds and the intestine sections were removed and the SRBC's agarose rectangles were stored in the humidification chamber at room temperature. After a period of 22 hours, images of the hemolytic areas were obtained with a camera. Hemolytic areas were calculated using the Fiji version of ImageJ software (J. Schindelin et al., Fiji: an open-source platform for biological-image analysis. Nature methods, 2012, vol. 9, pp. 676-682). Table 2. Inhibitory efficacy on the venom load to P. noctiluca.

The test system of assay [2] is P. noctiluca. The experiment in a line: Tentacle Solution Assay (TSA): inhibition of chemically stimulated nematocyst discharge. Format: cell-based. On the set-up: key to Inhibitory effect (TSA) using 5% acetic acid as chemical stimulator Discharge: 0: no discharge was observed; +: low discharge of nematocysts; ++: medium discharge of nematocysts; +++: high discharge of nematocysts; key to Inhibitory effect (TSA) using 5% acetic acid as chemical stimulator Effect: Neutral effect solution: nematocysts were not activated after the incubation in the first solution but were activated by the subsequent chemical stimulation with 5% acetic acid solution; Reductor effect solution: nematocysts were not activated after the incubation in the first solution, but some isolated nematocysts discharge was observed activated by the subsequent chemical stimulation with 5% acetic acid solution; Inhibitory effect solution: nematocysts were not activated after the incubation in the first solution or by the subsequent chemical stimulation with 5% acetic acid solution. The conditions noted are these: tentacle pieces incubated 5 minutes in 3 ml solution, then 15 µl of 5% acetic acid. The protocol: as §1
Tentacles pieces of approximately 3 cm long were transferred to slides ([…]). The samples were observed under the light microscope in order to ensure their integrity. Subsequently, tentacles were incubated on microwells with 3 ml of each solution for 5 minutes. In order to know the inhibitory effect, the neutral solutions were chemically stimulated by means of 15 µl of 5% acetic acid solution in distilled water (an activator solution per se).
The nematocysts response was classified qualitatively in four categories in accordance with Pyo et al. (2016): • 1. 0: no discharge was observed; • 2. +: low discharge of nematocysts; • 3. ++: medium discharge of nematocysts; • 4. +++: high discharge of nematocysts.
The effect was classified in one of three categories: • 1. Neutral effect solution: nematocysts were not activated after the incubation in the first solution but were activated by the subsequent chemical stimulation with 5% acetic acid solution; • 2. Reductor effect solution: nematocysts were not activated after the incubation in the first solution, but some isolated nematocysts discharge was observed activated by the subsequent chemical stimulation with 5% acetic acid solution; • 3. Inhibitory effect solution: nematocysts were not activated after the incubation in the first solution or by the subsequent chemical stimulation with 5% acetic acid solution. Table 1. Inhibitory efficacy on the nematocyst discharge in P. noctiluca.

Take `CC(C)(C)C1CCC(O)CC1` (stereo not drawn) [4-tert-butyl cyclohexanol]: the discharge of nematocysts result in the assay with P. noctiluca [1] is reported as “significantly reduces”.
As for `CC(=O)O` [5% Acetic acid solution, acetic acid], in the assay on P. noctiluca [2], the “Inhibitory effect (TSA) using 5% acetic acid as chemical stimulator Discharge” value is “+++” and the “Inhibitory effect (TSA) using 5% acetic acid as chemical stimulator Effect” value was “Activator”.
As for `CC(O)CCO` (stereo not drawn) [100% Butylene glycol, butylene glycol], in the assay with P. noctiluca [1] (tentacles incubated 5 minutes in solution, sting 1 minute through pig intestine on sheep red blood cell agarose, read after 22 hours), the “Venom load - Hemolytic area (%)” value is on record as 26.54 ± 19.66%. For the same compound, the “% Inhibitory” value in the assay with P. noctiluca [1] ({}) was 56.33%. In the assay on P. noctiluca [2], the “Inhibitory effect (TSA) using 5% acetic acid as chemical stimulator Discharge” value is on record as “+” and the “Inhibitory effect (TSA) using 5% acetic acid as chemical stimulator Effect” value is reported as “Reductor”.
Consider `CCO` [100% Ethanol, ethanol], for which, in the assay with P. noctiluca [2], the “Inhibitory effect (TSA) using 5% acetic acid as chemical stimulator Discharge” value is “++” and the “Inhibitory effect (TSA) using 5% acetic acid as chemical stimulator Effect” value was “Neutral/Reductor”.
The corresponding values for `CC(O)CO` (stereo not drawn) [100% Propylene glycol, propylene glycol] are “+” and “Reductor”.
In the case of `O=C(CO)c1ccccc1` [HAP, hydroxy acetophenone], the discharge of nematocysts entry in the assay on P. noctiluca [1] is on record as “significantly reduces”.

The record behind these values is patent publication EP4311544A1, “COMPOUNDS USEFUL AGAINST JELLYFISH STINGS” (Isdin, S. A., priority 2022, dated 2024).
